The test system of one assay is fed rats. Kind of assay: glyburide effect on plasma glucose in fed rats. It is filed as in vivo, rat. Particulars: for glucose −30 min / glucose 1 h / glucose 3 h / glucose 6 h / glucose −24 h: fed animals; for glucose −30 min: 30 min before application (baseline); for glucose 1 h: 1 h after application; for glucose 3 h: 3 h after application; for glucose 6 h: 6 h after application; for glucose −24 h: 24 h before application (baseline). Here is the method: 30 min before the application of the compound (FIG. 1, Table 1).

Assay [1] concerns adult male Lewis rats fasted for 24 h. Kind of assay: glyburide induced hypoglycemia in fasted rats, plasma glucose. It is filed as in vivo, rat. Particulars: for glucose −30 min / glucose 1 h / glucose 3 h / glucose 6 h / glucose −24 h: fasted animals; for glucose −30 min: 30 min before application (baseline); for glucose 1 h: 1 h after application; for glucose 3 h: 3 h after application; for glucose 6 h: 6 h after application; for glucose −24 h: 24 h before application (baseline). As to the method: Food restriction for 24 h reduced plasma glucose concentration in all treatment groups from about 8 mmol/l to approximately 6 mmol/l. 30 min before the application of the compound (FIG. 1, Table 1).

Another assay relates to patients. Particulars: patients with hypoglycemia receiving octreotide; cited from earlier work.
Where [2] appears, read: Glyburide 30 mg/kg p.o. + 10 μg/kg s.c.
Where [3] appears, read: Glyburide 30 mg/kg p.o. + 30 μg/kg s.c.

`COc1ccc(Cl)cc1C(=O)NCCc1ccc(S(=O)(=O)NC(=O)NC2CCCCC2)cc1` [Glyburide]: in the assay with fed rats (Glyburide 30 mg/kg p.o. alone), the “glucose −30 min” value is 8.72 ± 0.14 mmol/L, the “glucose 1 h” value is 7.42 ± 0.18 mmol/L, the “glucose 3 h” value was 5.33 ± 0.16 mmol/L and the “glucose 6 h” value was found to be 6.27 ± 0.16 mmol/L. For the same compound, in the assay on fed rats (Glyburide 30 mg/kg p.o. alone), the “glucose −24 h” value worked out at 8.65 ± 0.11 mmol/L. Further, the hypoglycemic effect result in the assay with fed rats (fed rats, glyburide alone) is “not very pronounced”. In assay [1] (Glyburide 30 mg/kg p.o. alone), the “glucose −30 min” value amounted to 6.07 ± 0.39 mmol/L, the “glucose 1 h” value is 5.48 ± 0.15 mmol/L, the “glucose 3 h” value is 4.17 ± 0.16 mmol/L and the “glucose 6 h” value was determined as 3.53 ± 0.13 mmol/L. Besides, in assay [1] (Glyburide 30 mg/kg p.o. alone), the “glucose −24 h” value was 7.87 ± 0.34 mmol/L. In addition, the “minimum plasma glucose level” value in assay [1] (fasted rats, Glyburide 30 mg/kg p.o. alone, 6 h after the application) amounted to 3.5 mmol/L.

Take `C[C@@H](O)[C@@H]1NC(=O)[C@H](CCCCN)NC(=O)[C@@H](Cc2c[nH]c3ccccc23)NC(=O)[C@H](Cc2ccccc2)NC(=O)[C@@H](NC(=O)[C@H](N)Cc2ccccc2)CSSC[C@@H](C(=O)N[C@H](CO)[C@@H](C)O)NC1=O` [octreotide]: in the assay with fed rats (setting [2]), the “glucose 1 h” value is 7.27 ± 0.15 mmol/L, the “glucose 3 h” value is on record as 5.80 ± 0.24 mmol/L, the “glucose 6 h” value came out at 6.00 ± 0.44 mmol/L and the “glucose −24 h” value is listed as 8.17 ± 0.38 mmol/L. Besides, in the assay on fed rats (setting [3]), the “glucose 1 h” value worked out at 7.48 ± 0.25 mmol/L, the “glucose 3 h” value is on record as 5.63 ± 0.24 mmol/L, the “glucose 6 h” value worked out at 6.10 ± 0.43 mmol/L and the “glucose −24 h” value is reported as 8.07 + 0.43 mmol/L. For the same compound, in the assay with patients, the “serum glucose level versus controls” value was “higher than that in controls” and the “time within which the effect on serum glucose waned” value is not above 8 h. Besides, in assay [1] (setting [2]), the “glucose −30 min” value was 5.75 ± 0.21 mmol/L, the “glucose 1 h” value is 4.27 ± 0.07 mmol/L, the “glucose 3 h” value is reported as 4.28 ± 0.14 mmol/L and the “glucose 6 h” value is recorded as 4.28 ± 0.23 mmol/L. In assay [1] (setting [2]), the “glucose −24 h” value came to 8.53 ± 0.27 mmol/L. In assay [1] (setting [3]), the “glucose −30 min” value is 6.43 ± 0.49 mmol/L, the “glucose 1 h” value is reported as 4.22 ± 0.14 mmol/L, the “glucose 3 h” value was found to be 5.83 ± 0.28 mmol/L and the “glucose 6 h” value came out at 4.83 ± 0.24 mmol/L. In addition, in assay [1] (setting [3]), the “glucose −24 h” value came out at 8.63 ± 0.19 mmol/L. In addition, the “prevention of the glyburide induced hypoglycemia” value in assay [1] (fasted rats, Glyburide 30 mg/kg p.o. + 10 or 30 μg/kg s.c., after 1 h) is “not effective”. Also, the “effect on glucose levels in glyburide treated rats” value in assay [1] (fasted rats, highest dose (30 μg/kg s.c.), after 3 and 6 h) is recorded as “only a small tendency to increase glucose levels”.

Take “cyclo[{(4-(NH2—C2H4—NH—CO—O—)Pro}-Phg-DTrp-Lys-Tyr(4-Bzl)-Phe] [pasireotide]”: in the assay on fed rats (setting [2]), the “glucose −30 min” value is on record as 8.53 ± 0.34 mmol/L, the “glucose 1 h” value worked out at 13.48 ± 0.65 mmol/L, the “glucose 3 h” value came out at 12.42 ± 0.39 mmol/L and the “glucose 6 h” value is on record as 6.85 ± 0.23 mmol/L. Also, the “glucose −24 h” value in the assay on fed rats (setting [2]) was 8.65 ± 0.18 mmol/L. Besides, in the assay with fed rats (setting [3]), the “glucose −30 min” value was 8.10 ± 0.29 mmol/L, the “glucose 1 h” value came out at 13.47 ± 0.91 mmol/L, the “glucose 3 h” value stood at 13.13 ± 0.69 mmol/L and the “glucose 6 h” value came out at 9.12 ± 0.47 mmol/L. Also, in the assay with fed rats (setting [3]), the “glucose −24 h” value was 8.85 ± 0.25 mmol/L. Moreover, the “effect on plasma glucose” value in the assay on fed rats (fed rats pretreated with glyburide) is “significant but transit effect”. In assay [1] (setting [2]), the “glucose −30 min” value is 5.88 ± 0.16 mmol/L, the “glucose 1 h” value amounted to 7.00 ± 0.42 mmol/L, the “glucose 3 h” value worked out at 6.22 ± 0.42 mmol/L and the “glucose 6 h” value is listed as 6.48 ± 0.52 mmol/L. For the same compound, the “glucose −24 h” value in assay [1] (setting [2]) is given as 8.07 ± 0.45 mmol/L. In assay [1] (setting [3]), the “glucose −30 min” value was found to be 6.10 ± 0.23 mmol/L, the “glucose 1 h” value is given as 6.98 ± 0.59 mmol/L, the “glucose 3 h” value was determined as 7.55 ± 0.47 mmol/L and the “glucose 6 h” value is listed as 7.58 ± 0.47 mmol/L. Also, the “glucose −24 h” value in assay [1] (setting [3]) was found to be 7.93 ± 0.52 mmol/L. Besides, the “effect on plasma glucose in glyburide treated rats” value in assay [1] (fasted rats, Glyburide 30 mg/kg p.o. + 10 or 30 μg/kg s.c., 1, 3 and 6 h after the application) is listed as “plasma glucose increased to levels of untreated fasted rats or above”.

The values are drawn from patent US9314508B2, “Use of somatostatin analogs in control of hypoglycemia” (priority 2008, dated 2016).
